According to patent US20070243221A1, “ANTI-WRINKLE COMPOSITION” (L'OREAL, priority 2006, published 2007):

Tested on: normal human fibroblasts
Experiment: Dermo-decontracting effect: spontaneous contraction of equivalent dermis (collagen matrix seeded with normal human fibroblasts)
Type: cell-based
Details: on average over the duration of the experiment (0, 4, 8 and 24 hours), equivalent dermis surface area
Text: The principle of this test consists in studying the effect of the test product on a model of equivalent dermis consisting of a collagen matrix seeded with normal human fibroblasts.
These conditions are intended to mimic in vitro the dermal contractile phenomena that take place during facial movements. The reason for this is that, under these conditions, the cells spontaneously exert tensile forces that induce a shrinkage of the collagen gel. […] Measurement of this area makes it possible to evaluate the relaxation effects of the substances placed in contact beforehand with the equivalent dermis.
Two series of attached equivalent dermides containing normal human fibroblasts are prepared: a control series without any treatment, and a series treated with the test compound (1 μM). The experiment is repeated three times.
The dermal equivalents are prepared as described in Asselineau et al., Exp. Cell. Res., 1985, 159, 536-539; Models in dermatology, 1987, vol. 3, pp. 1-7, in the following proportions:
The treated equivalent dermis differs from the control equivalent dermis in that 1 μM of the test compound has been added thereto. […]
To do this, a digital image is acquired for each treated or untreated equivalent dermis using a camera (CCD camera—Iris Sony DXC-107P) and the surface area is then calculated on each image by means of an image analysis system (Zeiss Axiovision 3.0). […]

SMILES	reduces the contraction of fibroblasts, compared with the control (tested at 1 μM) [%]	reduces the contraction of fibroblasts, compared with the control (tested at 10 μM) [%]
c1ccc(CCCNC2CCN(CCc3ccccc3)CC2)cc1 [compound 1, 1-(2-phenylethyl)-4-[N-(3-phenylpropyl)]aminopiperidine]	21	–
CC(NC1CCN(CCc2ccccc2)CC1)c1ccccc1 (centres unmarked) [compound 5, 1-(2-phenylethyl)-4-[N-(1-phenylethyl)]aminopiperidine]	–	40
